Laboratory results published in ChEMBL document CHEMBL1130616, “Synthesis and biological activity of glutamic acid derivatives” (Bioorg Med Chem Lett, 1998).

Columns and labels:
Type in all cases: functional
Rattus norvegicus [1] = species on record: Rattus norvegicus; assay: Emax by measuring IP2 accumulation using rat fore brain synaptoneurosomes
Rattus norvegicus [2] = species on record: Rattus norvegicus; assay: Effective concentration by measuring IP2 accumulation using rat fore brain synaptoneurosomes
Rattus norvegicus [3] = species on record: Rattus norvegicus; assay: Emax by measuring IP1 accumulation using rat fore brain synaptoneurosomes
Rattus norvegicus [4] = species on record: Rattus norvegicus; assay: Effective concentration by measuring IP1 accumulation using rat fore brain synaptoneurosomes

| SMILES | Emax (Rattus norvegicus [1]) [%] | EC50 (Rattus norvegicus [2]) [µM] | Emax (Rattus norvegicus [3]) [%] | EC50 (Rattus norvegicus [4]) [µM] |
| --- | --- | --- | --- | --- |
| N[C@@H](CC(C=O)CCCCN1C(=O)c2ccccc2C1=O)C(=O)O.N[C@@]1(C(=O)O)CC[C@@H](C(=O)O)C1 (some centres undefined) | 543 | 79 | 264 | 37 |
| C[C@@](N)(C(=O)O)c1ccc(C(=O)O)cc1.N[C@@]1(C(=O)O)CC[C@@H](C(=O)O)C1 | 643 | 224 | 269 | 109 |
| N[C@@H](CC(C=O)CCCCN1C(=O)c2ccccc2C1=O)C(=O)O.N[C@@H](Cn1oc(=O)[nH]c1=O)C(=O)O (some centres undefined) | 359 | 0.27 | 216 | 0.14 |
| C[C@@](N)(C(=O)O)c1ccc(C(=O)O)cc1.N[C@@H](Cn1oc(=O)[nH]c1=O)C(=O)O | 358 | 1.34 | 225 | 0.63 |
| N[C@@H](Cn1oc(=O)[nH]c1=O)C(=O)O [QUISQUALATE] | 524 | 0.32 | 240 | 0.1 |
| N[C@@]1(C(=O)O)CC[C@@H](C(=O)O)C1 | 700 | 38 | 284 | 17 |
